This note sets out measurements from patent US10004701B2, “Methods and compositions for treating infection” (UNIVERSITY OF ROCHESTER, priority 2012, dated 2018).

What all share (assay): AK assay 384-well format, Prestwick library screening
Assay [1] concerns P. aeruginosa. The format is cell-based, Pseudomonas aeruginosa. The following applies: 50 μM final drug concentration; for fold induction at 50 µM: Pseudomonas aeruginosa, 3 h.
Assay [2] relates to E. coli. The format is cell-based, Escherichia coli. Conditions: 50 μM final drug concentration; for fold induction at 50 µM: Escherichia coli, 3 h.
Assay [3] concerns A. baumannii strain 98-37-09. The class given is cell-based, Acinetobacter baumannii. The following applies: 50 μM final drug concentration; for fold induction at 50 µM: Acinetobacter baumannii, 983709, 3 h.
Assay [4] relates to K. pneumoniae. The format is cell-based, Klebsiella pneumoniae. The following applies: 50 μM final drug concentration; for fold induction at 50 µM: Klebsiella pneumoniae, 3 h.
Assay [5] relates to S. aureus strain USA300-0114. The class given is cell-based, Staphylococcus aureus. The following applies: 50 μM final drug concentration; for fold induction at 50 µM: Staphylococcus aureus, USA300, 3 h.
The subject of assay [6] is E. faecium. The class given is cell-based, Enterococcus faecium. The following applies: 50 μM final drug concentration; for fold induction at 50 µM: Enterococcus faecium, 3 h.
Assay [7] has as its system E. cloacae. The format is cell-based, Enterobacter cloacae. The following applies: 50 μM final drug concentration; for fold induction at 50 µM: Enterobacter cloacae, 3 h.
Where [8] appears, read: planktonic, cutoff for positive-scoring molecules 3-fold increase, read-out: AK-based Prestwick Library Screening Results, P. aeruginosa (fold increase in extracellular AK activity).
Where [9] appears, read: planktonic, cutoff for positive-scoring molecules 3-fold increase, read-out: AK-based Prestwick Library Screening Results, E. coli (fold increase in extracellular AK activity).
Setting [10] is: planktonic, cutoff for positive-scoring molecules 3-fold increase, read-out: AK-based Prestwick Library Screening Results, A. baumannii (fold increase in extracellular AK activity).
Setting [11] is: planktonic, cutoff for positive-scoring molecules 3-fold increase, read-out: AK-based Prestwick Library Screening Results, K. pneumoniae (fold increase in extracellular AK activity).
Setting [12] is: planktonic, cutoff for positive-scoring molecules 3-fold increase, read-out: AK-based Prestwick Library Screening Results, S. aureus (fold increase in extracellular AK activity).
The mark [13] stands for this setting: planktonic, cutoff for positive-scoring molecules 3-fold increase, read-out: AK-based Prestwick Library Screening Results, E. faecium (fold increase in extracellular AK activity).
Where [14] appears, read: planktonic, cutoff for positive-scoring molecules 3-fold increase, read-out: AK-based Prestwick Library Screening Results, E. cloacae (fold increase in extracellular AK activity).

The structures appear in SMILES notation. Structures can show the parent of a compound that is named as a salt. Where two headings read alike, the source gives them in different places.

Take `C[C@@]12C(=O)OC(=O)[C@]1(C)[C@H]1CC[C@@H]2O1` [Cantharidin]: the fold induction at 50 µM in assay [1] (planktonic, […], read-out: AK-based Prestwick Library Screening Results, P. aeruginosa (fold increase in extracellular AK activity)) amounted to 0.5; in assay [2] (planktonic, […], read-out: AK-based Prestwick Library Screening Results, E. coli (fold increase in extracellular AK activity)) it was 0.6; in assay [3] (planktonic, […], read-out: AK-based Prestwick Library Screening Results, A. baumannii (fold increase in extracellular AK activity)), 0.5; in assay [4] (planktonic, […], read-out: AK-based Prestwick Library Screening Results, K. pneumoniae (fold increase in extracellular AK activity)), 0.6; in assay [5] (planktonic, […], read-out: AK-based Prestwick Library Screening Results, S. aureus (fold increase in extracellular AK activity)), 0.5; in assay [6] (planktonic, […], read-out: AK-based Prestwick Library Screening Results, E. faecium (fold increase in extracellular AK activity)) it was 0.8. Further, in assay [7] (planktonic, […], read-out: AK-based Prestwick Library Screening Results, E. cloacae (fold increase in extracellular AK activity)), the fold induction at 50 µM came out at 0.6.

For `Cc1cc(=O)oc2cc(O)ccc12` [Hymecromone], the fold induction at 50 µM in assay [1] (setting [8]) was 1; in assay [2] (setting [9]), 0.9; in assay [3] (setting [10]) it was 0.8; in assay [4] (setting [11]), 0.7; in assay [5] (setting [12]), 1; in assay [6] (setting [13]), 1. Further, the fold induction at 50 µM in assay [7] (setting [14]) was determined as 1.1.

For `NCC(CC(=O)O)c1ccc(Cl)cc1` (racemic) [Baclofen (R,S)], in assay [1] (384-well format, […]), the “AK-based Prestwick Library Screening Results, P. aeruginosa (increase in extracellular AK activity)” value is 0.3. For the same compound, the “AK-based Prestwick Library Screening Results, E. coli (increase in extracellular AK activity)” value in assay [2] (384-well format, […]) is reported as 0.5. Also, in assay [3] (384-well format, […]), the “AK-based Prestwick Library Screening Results, A. baumannii (increase in extracellular AK activity)” value was 0.4. In assay [4] (384-well format, […]), the “AK-based Prestwick Library Screening Results, K. pneumoniae (increase in extracellular AK activity)” value was found to be 0.6. For the same compound, in assay [5] (384-well format, […]), the “AK-based Prestwick Library Screening Results, S. aureus (increase in extracellular AK activity)” value was determined as 0.4. For the same compound, the “AK-based Prestwick Library Screening Results, E. faecium (increase in extracellular AK activity)” value in assay [6] (384-well format, […]) is 0.8. The “AK-based Prestwick Library Screening Results, E. cloacae (increase in extracellular AK activity)” value in assay [7] (384-well format, […]) was determined as 0.3.

For `COc1cc([S+](C)[O-])ccc1-c1nc2ncccc2[nH]1` (stereo not drawn) [Sulmazole], the fold induction at 50 µM in assay [1] (planktonic, cutoff for positive 3-fold increase, read-out: AK-based Prestwick Library Screening Results, P. aeruginosa (fold increase in extracellular AK activity)) came out at 0.3; in assay [2] (planktonic, cutoff for positive 3-fold increase, read-out: AK-based Prestwick Library Screening Results, E. coli (fold increase in extracellular AK activity)) it was 0.3; in assay [3] (planktonic, cutoff for positive 3-fold increase, read-out: AK-based Prestwick Library Screening Results, A. baumannii (fold increase in extracellular AK activity)), 0.3; in assay [4] (planktonic, cutoff for positive 3-fold increase, read-out: AK-based Prestwick Library Screening Results, K. pneumoniae (fold increase in extracellular AK activity)), 0.5; in assay [5] (planktonic, cutoff for positive 3-fold increase, read-out: AK-based Prestwick Library Screening Results, S. aureus (fold increase in extracellular AK activity)), 0.4; in assay [6] (planktonic, cutoff for positive 3-fold increase, read-out: AK-based Prestwick Library Screening Results, E. faecium (fold increase in extracellular AK activity)) it was 0.9. The fold induction at 50 µM in assay [7] (planktonic, cutoff for positive 3-fold increase, read-out: AK-based Prestwick Library Screening Results, E. cloacae (fold increase in extracellular AK activity)) is 0.3.

`C#CCN(C)Cc1ccccc1` [Pargyline hydrochloride]: the fold induction at 50 µM amounted to 1 in assay [1] (384-well format, cutoff for positive-scoring molecules 3-fold increase, read-out: AK-based Prestwick Library Screening Results, P. aeruginosa (increase in extracellular AK activity)); 1 in assay [2] (384-well format, cutoff for positive-scoring molecules 3-fold increase, read-out: AK-based Prestwick Library Screening Results, E. coli (increase in extracellular AK activity)); 0.9 in assay [3] (384-well format, cutoff for positive-scoring molecules 3-fold increase, read-out: AK-based Prestwick Library Screening Results, A. baumannii (increase in extracellular AK activity)); 0.8 in assay [4] (384-well format, cutoff for positive-scoring molecules 3-fold increase, read-out: AK-based Prestwick Library Screening Results, K. pneumoniae (increase in extracellular AK activity)); 0.8 in assay [5] (384-well format, cutoff for positive-scoring molecules 3-fold increase, read-out: AK-based Prestwick Library Screening Results, S. aureus (increase in extracellular AK activity)); 0.9 in assay [6] (384-well format, cutoff for positive-scoring molecules 3-fold increase, read-out: AK-based Prestwick Library Screening Results, E. faecium (increase in extracellular AK activity)). Further, the fold induction at 50 µM in assay [7] (384-well format, cutoff for positive-scoring molecules 3-fold increase, read-out: AK-based Prestwick Library Screening Results, E. cloacae (increase in extracellular AK activity)) worked out at 0.9.

On to `C[C@]12C[C@H]3S[C@H]3C[C@@H]1CC[C@@H]1[C@@H]2CC[C@]2(C)[C@@H](O)CC[C@@H]12` [Epitiostanol], for which the fold induction at 50 µM stood at 1.1 in assay [1] (planktonic P. aeruginosa, […], read-out: AK-based Prestwick library screening result, P. aeruginosa (fold increase in extracellular AK activity)); 1.2 in assay [2] (planktonic E. coli, […], read-out: AK-based Prestwick library screening result, E. coli (fold increase in extracellular AK activity)); 1.1 in assay [3] (planktonic A. baumannii, […], read-out: AK-based Prestwick library screening result, A. baumannii (fold increase in extracellular AK activity)); 0.9 in assay [4] (planktonic K. pneumoniae, […], read-out: AK-based Prestwick library screening result, K. pneumoniae (fold increase in extracellular AK activity)); 0.9 in assay [5] (planktonic S. aureus, […], read-out: AK-based Prestwick library screening result, S. aureus (fold increase in extracellular AK activity)); 1 in assay [6] (planktonic E. faecium, […], read-out: AK-based Prestwick library screening result, E. faecium (fold increase in extracellular AK activity)). The fold induction at 50 µM in assay [7] (planktonic E. cloacae, […], read-out: AK-based Prestwick library screening result, E. cloacae (fold increase in extracellular AK activity)) turned out to be 1.3.

Regarding `CCCCC1(COC(=O)CCC(=O)O)C(=O)N(c2ccccc2)N(c2ccccc2)C1=O` [Suxibuzone], the fold induction at 50 µM in assay [1] (setting [8]) came to 0.6; in assay [2] (setting [9]) it was 0.6; in assay [3] (setting [10]), 0.8; in assay [4] (setting [11]), 0.6; in assay [5] (setting [12]) it was 0.6; in assay [6] (setting [13]), 0.9. Further, in assay [7] (setting [14]), the fold induction at 50 µM turned out to be 0.8.

Turning to `CC(Cc1cccc(C(F)(F)F)c1)NCCOC(=O)c1ccccc1` (stereo not drawn) [Benfluorex hydrochloride], the fold induction at 50 µM in assay [1] (planktonic P. aeruginosa, cutoff for positive-scoring molecules 3-fold increase, read-out: AK-based Prestwick Library Screening Results, P. aeruginosa (increase in extracellular AK activity)) was found to be 1.1; in assay [2] (planktonic E. coli, cutoff for positive-scoring molecules 3-fold increase, read-out: AK-based Prestwick Library Screening Results, E. coli (increase in extracellular AK activity)), 1.4; in assay [3] (planktonic A. baumannii, cutoff for positive-scoring molecules 3-fold increase, read-out: AK-based Prestwick Library Screening Results, A. baumannii (increase in extracellular AK activity)) it was 1; in assay [4] (planktonic K. pneumoniae, cutoff for positive-scoring molecules 3-fold increase, read-out: AK-based Prestwick Library Screening Results, K. pneumoniae (increase in extracellular AK activity)) it was 1.1; in assay [5] (planktonic S. aureus, cutoff for positive-scoring molecules 3-fold increase, read-out: AK-based Prestwick Library Screening Results, S. aureus (increase in extracellular AK activity)), 1.2; in assay [6] (planktonic E. faecium, cutoff for positive-scoring molecules 3-fold increase, read-out: AK-based Prestwick Library Screening Results, E. faecium (increase in extracellular AK activity)) it was 0.9. Also, the fold induction at 50 µM in assay [7] (planktonic E. cloacae, cutoff for positive-scoring molecules 3-fold increase, read-out: AK-based Prestwick Library Screening Results, E. cloacae (increase in extracellular AK activity)) amounted to 1.4.

Regarding `NS(=O)(=O)c1cc2c(cc1Cl)NC(C(Cl)Cl)NS2(=O)=O` (stereo not drawn) [Trichlormethiazide], the fold induction at 50 µM was found to be 0.8 in assay [1] (setting [8]); 0.8 in assay [2] (setting [9]); 1 in assay [3] (setting [10]); 0.8 in assay [4] (setting [11]); 1.3 in assay [5] (setting [12]); 1.4 in assay [6] (setting [13]). The fold induction at 50 µM in assay [7] (setting [14]) is 1.2.
